Measurements reported in ChEMBL document CHEMBL3232928, “Fragment-to-hit-to-lead discovery of a novel pyridylurea scaffold of ATP competitive dual targeting type II topoisomerase inhibiting antibacterial agents” (J Med Chem, 2013).
Values after ≈ are worked out from the molar mass of the structure shown.

Tests used:
Staphylococcus aureus [1] = test: Inhibition of DNA synthesis in methicillin-sensitive wild type Staphylococcus aureus over 1 hr by [3H]thymidine incorporation assay; assay type: functional, organism-based
Staphylococcus aureus [2] = test: Inhibition of RNA synthesis in methicillin-sensitive wild type Staphylococcus aureus over 1 hr by [3H]uridine incorporation assay; assay type: functional, organism-based
Staphylococcus aureus [3] = test: Inhibition of protein synthesis in methicillin-sensitive wild type Staphylococcus aureus over 1 hr by [14C]leucine incorporation assay; assay type: functional, organism-based
Staphylococcus aureus [4] = test: Inhibition of protein synthesis in methicillin-sensitive wild type Staphylococcus aureus over 1 hr by [14C]valine incorporation assay; assay type: functional, organism-based
Staphylococcus aureus [5] = test: Inhibition of fatty acid synthesis in methicillin-sensitive wild type Staphylococcus aureus over 1 hr by [14C]acetic acid incorporation assay; assay type: functional, organism-based
Staphylococcus aureus [6] = test: Inhibition of cell wall synthesis in methicillin-sensitive wild type Staphylococcus aureus over 1 hr by [14C]N-acetyl glucosamine incorporation assay; assay type: functional, organism-based
Streptococcus pneumoniae [7] = test: Inhibition of DNA synthesis in Streptococcus pneumoniae D39 over 1 hr by [3H]thymidine incorporation assay; assay type: functional
Streptococcus pneumoniae [8] = test: Inhibition of RNA synthesis in Streptococcus pneumoniae D39 over 1 hr by [3H]uridine incorporation assay; assay type: functional
Streptococcus pneumoniae [9] = test: Inhibition of protein synthesis in Streptococcus pneumoniae D39 over 1 hr by [14C]leucine incorporation assay; assay type: functional; settings: D39, 1 h
Streptococcus pneumoniae [10] = test: Inhibition of protein synthesis in Streptococcus pneumoniae D39 over 1 hr by [14C]valine incorporation assay; assay type: functional; settings: D39, 1 h
Streptococcus pneumoniae [11] = test: Inhibition of fatty acid synthesis in Streptococcus pneumoniae D39 over 1 hr by [14C]acetic acid incorporation assay; assay type: functional; settings: D39, 1 h
Streptococcus pneumoniae [12] = test: Inhibition of cell wall synthesis in Streptococcus pneumoniae D39 over 1 hr by [14C]N-acetyl glucosamine incorporation assay; assay type: functional; settings: D39, 1 h
[13] = Antibacterial activity against fluoroquinolone-resistant Streptococcus pneumoniae D39 NCTC 7466 expressing ParE/GyrB T172A mutant assessed as growth inhibition after 18 to 24 hrs by CLSI broth microdilution method; assay type: functional
[14] = Antibacterial activity against fluoroquinolone-resistant Streptococcus pneumoniae D39 NCTC 7466 expressing ParE/GyrB K143I mutant assessed as growth inhibition after 18 to 24 hrs by CLSI broth microdilution method; assay type: functional
[15] = Antibacterial activity against fluoroquinolone-resistant Streptococcus pneumoniae D39 NCTC 7466 expressing GyrB/ParE T172A mutant assessed as growth inhibition after 18 to 24 hrs by CLSI broth microdilution method; assay type: functional
[16] = Antibacterial activity against fluoroquinolone-resistant Streptococcus pneumoniae D39 NCTC 7466 expressing GyrB T172A/ParE T172A double mutant assessed as growth inhibition after 18 to 24 hrs by CLSI broth microdilution method; assay type: functional
[17] = Antibacterial activity against fluoroquinolone-resistant Streptococcus pneumoniae D39 NCTC 7466 expressing GyrB K143A/ParE T172A double mutant assessed as growth inhibition after 18 to 24 hrs by CLSI broth microdilution method; assay type: functional
[18] = Antibacterial activity against fluoroquinolone-resistant Streptococcus pneumoniae D39 NCTC 7466 expressing GyrA S81F/ParC S79F double mutant assessed as growth inhibition after 18 to 24 hrs by CLSI broth microdilution method; assay type: functional
[19] = Antibacterial activity against fluoroquinolone-resistant Streptococcus pneumoniae D39 NCTC 7466 expressing GyrA S81Y/ParC S79F double mutant assessed as growth inhibition after 18 to 24 hrs by CLSI broth microdilution method; assay type: functional
[20] = Antibacterial activity against fluoroquinolone-resistant Streptococcus pneumoniae D39 NCTC 7466 expressing GyrA S81F/ParC S79Y double mutant assessed as growth inhibition after 18 to 24 hrs by CLSI broth microdilution method; assay type: functional
Streptococcus pneumoniae [21] = test: microbe, parasite or virus in culture
Description: Antibacterial activity against wild type Streptococcus pneumoniae assessed as growth inhibition after 18 to 24 hrs by CLSI broth microdilution method

DNA gyrase subunit B = DNA gyrase subunit B (Staphylococcus aureus, UniProt P0A0K8); test: Inhibition of ATPase activity in Staphylococcus aureus GyrB tetramer in presence of Escherichia coli GyrA by ammonium molybdate/malachite green-based absorbance assay
DNA gyrase subunit B, sequence (P0A0K8 whole entry): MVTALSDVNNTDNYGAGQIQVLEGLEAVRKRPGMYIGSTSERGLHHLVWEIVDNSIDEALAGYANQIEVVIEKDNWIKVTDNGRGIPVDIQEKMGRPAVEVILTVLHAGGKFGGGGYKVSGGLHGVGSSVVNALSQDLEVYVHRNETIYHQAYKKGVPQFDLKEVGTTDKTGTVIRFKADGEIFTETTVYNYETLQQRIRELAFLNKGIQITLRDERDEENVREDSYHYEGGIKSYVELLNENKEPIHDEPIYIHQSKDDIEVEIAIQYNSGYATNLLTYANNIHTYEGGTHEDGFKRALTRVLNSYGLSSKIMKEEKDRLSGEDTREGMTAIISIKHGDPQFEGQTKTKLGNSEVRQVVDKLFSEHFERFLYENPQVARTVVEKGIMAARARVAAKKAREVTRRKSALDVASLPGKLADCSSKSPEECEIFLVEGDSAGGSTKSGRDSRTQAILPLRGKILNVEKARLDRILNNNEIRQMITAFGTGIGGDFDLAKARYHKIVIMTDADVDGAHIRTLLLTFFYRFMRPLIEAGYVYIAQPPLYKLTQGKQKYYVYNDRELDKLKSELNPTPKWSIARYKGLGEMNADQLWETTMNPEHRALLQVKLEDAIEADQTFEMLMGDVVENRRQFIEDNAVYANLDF

[22] = Inhibition of ATPase activity in Escherichia coli GyrA/GyrB by ammonium molybdate/malachite green-based absorbance assay
[23] = Inhibition of ATPase activity in Escherichia coli ParC/ParE by ammonium molybdate/malachite green-based absorbance assay
[24] = Inhibition of ATPase activity in Escherichia coli ParE by ammonium molybdate/malachite green-based absorbance assay
[25] = Antibacterial activity against Streptococcus pneumoniae D39 NCTC 7466 assessed as growth inhibition after 18 to 24 hrs by CLSI broth microdilution method; assay type: functional
Staphylococcus aureus [26] = test: Antibacterial activity against methicillin-sensitive wild type Staphylococcus aureus assessed as growth inhibition after 18 to 24 hrs by CLSI broth microdilution method; assay type: functional
Moraxella catarrhalis = test: Antibacterial activity against wild type Moraxella catarrhalis ATCC 43617 assessed as growth inhibition after 18 to 24 hrs by CLSI broth microdilution method; assay type: functional
[27] = Antibacterial activity against wild type Haemophilus influenzae Rd KW20 ATCC 51907 assessed as growth inhibition after 18 to 24 hrs by CLSI broth microdilution method; assay type: functional
Escherichia coli [28] = test: Antibacterial activity against wild type Escherichia coli W3110 assessed as growth inhibition after 18 to 24 hrs by CLSI broth microdilution method; assay type: functional
Escherichia coli [29] = test: Antibacterial activity against tolC efflux pump deficient Escherichia coli W3110 assessed as growth inhibition after 18 to 24 hrs by CLSI broth microdilution method; assay type: functional
[30] = Octanol-phosphate buffer partition coefficient, log D of the compound at pH 7.4 after 1 hr by shake flask method; assay type: physicochemical
[31] = Solubility of the compound; assay type: physicochemical
[32] = Unbound fraction in human at 10 uM after 16 hrs by LC-MS/MS analysis; assay type: ADME; settings: plasma
[33] = Dissociation constant, pKa of the compound; assay type: physicochemical

Work on O=C(O)c1cn(C2CC2)c2cc(N3CCNCC3)c(F)cc2c1=O [CIPROFLOXACIN] yielded an IC50 (Staphylococcus aureus [1]) of 3.9 µM, an IC50 (Staphylococcus aureus [2]) greater than 195 µM and an IC50 (Staphylococcus aureus [3]) greater than 174 µM. It also gave an IC50 (Staphylococcus aureus [4]) greater than 195 µM, an IC50 (Staphylococcus aureus [5]) greater than 195 µM and an IC50 (Staphylococcus aureus [6]) greater than 195 µM. The IC50 (Streptococcus pneumoniae [7]) was 28 µM, the IC50 (Streptococcus pneumoniae [8]) was greater than 200 µM and the IC50 (Streptococcus pneumoniae [9]) was 110 µM. The IC50 (Streptococcus pneumoniae [10]) was greater than 200 µM, the IC50 (Streptococcus pneumoniae [11]) was greater than 200 µM and the IC50 (Streptococcus pneumoniae [12]) was greater than 200 µM.

CN(C)[C@@H]1C(O)=C(C(N)=O)C(=O)[C@@]2(O)C(O)=C3C(=O)c4c(O)cccc4[C@@](C)(O)[C@H]3C[C@@H]12 [TETRACYCLINE] gave an MIC [13] of 0.25 µg/mL (≈ 0.563 µM), an MIC [14] of 0.25 µg/mL (≈ 0.563 µM) and an MIC [15] of 0.25 µg/mL (≈ 0.563 µM). It also gave an MIC [16] of 0.25 µg/mL (≈ 0.563 µM), an MIC [17] of 0.25 µg/mL (≈ 0.563 µM) and an MIC [18] of 0.13 µg/mL (≈ 0.293 µM). For the same compound, the MIC [19] was 0.25 µg/mL (≈ 0.563 µM), the MIC [20] was 0.13 µg/mL (≈ 0.293 µM) and the MIC (Streptococcus pneumoniae [21]) was 0.25 µg/mL (≈ 0.563 µM).

CO[C@@H]1[C@@H](OC(N)=O)[C@@H](O)[C@H](Oc2ccc3c(O)c(NC(=O)c4ccc(O)c(CC=C(C)C)c4)c(=O)oc3c2C)OC1(C)C [NOVOBIOCIN] showed an MIC [13] of 2 µg/mL (≈ 3.26 µM), an MIC [14] of 1 µg/mL (≈ 1.63 µM) and an MIC [15] of 0.25 µg/mL (≈ 0.408 µM). For the same compound, the MIC [16] was 4 µg/mL (≈ 6.53 µM), the MIC [17] was 4 µg/mL (≈ 6.53 µM) and the MIC [18] was 0.25 µg/mL (≈ 0.408 µM). The MIC [19] was 0.25 µg/mL (≈ 0.408 µM), the MIC [20] was 0.25 µg/mL (≈ 0.408 µM) and the MIC (Streptococcus pneumoniae [21]) was 0.5 µg/mL (≈ 0.816 µM).

CCNC(=O)Nc1cc(-c2nc(C(F)(F)F)cs2)c(-c2cncc(-c3nnn[nH]3)c2)cn1 showed an IC50 (DNA gyrase subunit B) of less than 0.01 µM, an IC50 [22] of less than 0.01 µM and an IC50 [23] of 0.26 µM. It also gave an IC50 [24] of less than 0.01 µM, an MIC [25] of 1.4 µg/mL (≈ 3.03 µM) and an MIC (Staphylococcus aureus [26]) greater than 64 µg/mL. It also gave an MIC (Moraxella catarrhalis) greater than 64 µg/mL, an MIC [27] greater than 64 µg/mL and an MIC (Escherichia coli [28]) greater than 64 µg/mL. For the same compound, the MIC (Escherichia coli [29]) was 23 µg/mL (≈ 49.8 µM), the logD at 1 h [30] was -0.38 and the solubility [31] was 240 µM (≈ 111 µg/mL). For the same compound, the fraction unbound at 16 h, 10 µM [32] was 0.14 and the pKa [33] was 3.7.
